US20090270278A1, “Methods and compounds for making arrays” (AMBERGEN, Inc., priority 2007, published 2009)

Target: T1, protein kinase Cα (PKCα) (Homo sapiens, UniProt P17252)
T1 construct: isolate and photo-release endogenous PKCa from the undiluted detergent fractionated HeLa cell extracts; endogenous in cells; host or cells: HeLa cells (ATCC)
Experiment: PMA-mediated PKCα sub-cellular translocation, measured by kinase activity after isolation with photocleavable antibodies
Assay type: cell-based
Details: cultured HeLa cells stimulated with 200 nM PMA for 5 min, detergent-fractionated, based on kinase activity, n=4
Method: FIG. 20. Phorbol ester (PMA) mediated protein kinase Cα (PKCα) sub-cellular translocation as measured by functional activity following isolation with photocleavable antibodies. Cultured HeLa cells were stimulated with 200 nM PMA for 5 min and detergent fractionated into the cytosol and membrane compartments prior to isolation and purification with the photocleavable antibodies.
Cultured HeLa cells (ATCC; Manassas, Va.) were stimulated for 5 min with 200 nM Phorbol-12-Myristate-13-Acetate (PMA; EMD Biosciences, Inc., San Diego, Calif.) and subsequently detergent fractionated into sub-cellular compartments according to reported procedures [Ramsby et al. (1994) Electrophoresis 15, 265-277; Ramsby & Makowski. (1999) Methods Mol Biol 112, 53-66; Chiang et al. (2000) J Biochem Biophys Methods 46, 53-68]. PMA is a potent activator of PKCα and is well known to cause translocation of the kinase from the cytosolic to the membrane sub-cellular compartments [Ross & Joyner. (1997) Endothelium 5, 321-332; Bazan & Rapoport. (1996) JPharmacol Toxicol Methods 36, 87-95; Yazlovitskaya & Melnykovych. (1995) Cancer Lett 88, 179-183]. […]

SMILES: CCCCCCCCCCCCCC(=O)O[C@@H]1[C@@H](C)[C@@]2(O)[C@@H](C=C(CO)C[C@]3(O)C(=O)C(C)=C[C@@H]23)[C@@H]2C(C)(C)[C@]12OC(C)=O [PMA, Phorbol-12-Myristate-13-Acetate]
- relative sub-cellular distribution of PKCα, membrane (baseline 21±2% membrane): 84±3%
- relative sub-cellular distribution of PKCα, cytosol (baseline 79±7% cytosol): 16±4%
